From US8329902B2, “Optically pure dihydropyrimidine compounds and their uses for the preparation of a medicament for treatment and prevention of viral diseases” (Beijing Molecule Science And Technology Co., Ltd., priority 2006, dated 2012)

Assays:
HBV DNA = assay: Antiviral activity: inhibition of HBV DNA in supernatant of HepG 2.2.15 cells (dot blot hybridization); type: cell-based; settings: Hepatitis B virus, HepG2.2.15, 192 h, 8 days incubation, 50% reduction of type B hepatitis-specific DNA band
Experimental: The antiviral effection of the compound of the present invention is determined according to the methods described by Sells, et al in (M. A. Sells M. L. Chen G. Proc. Natl. Acad. Sci. 1987, 84, 1005-1009) and Korba, et al (B. E. Korba, J. L. Gerin Antiviral Research 1992, 19, 55-70).
(§1) The antiviral test was carried out in a 96-cell microtiter plate. The first column of the plate only contained a culture medium for growth and HepG 2.2.15 cells, as a control. First, a stock solution (50 mmol) of a test compound was dissolved in DMSO, and further diluted with a culture medium for growth for HepG 2.2.15 cells. Usually, the compound of the present invention was transferred by suction at a test concentration of 100 μg/ml (the first test concentration) to each cell of the second column of the microtiter plate, and then diluted with the culture medium for growth plus 2% fetal bovine serum (25 μL), by 2 times once, up to […] at the maximum.
(§2) Then, 225 μL of a suspension of HepG 2.2.15 cells (5×10^4 cells/ml) in the culture medium fro growth plus 2% fetal bovine serum was added to each pore of the 96-cell microtiter plate.
(§3) The test mixture was incubated under the conditions of 37° C., 5% CO2 for 4 days. Then, the supernatant was removed by suction, and to each pore 225 μL of a new-prepared culture medium was added. Again, the compound of the present invention was added by a solution of 25 μL. The obtained mixture was further incubated for 4 days.
Thereafter, the supernatant was collected, and sucked in vacuum to a 96-cell dot blot chamber covered by nylon film (used in accordance with the directions for use given by the manufacturer).
After the supernatant was transferred onto the nylon film of the dot blot device (as described above), the supernatant of HepG 2.2.15 cells was denaturated (1.5 M NaCl/0.5 M NaOH), neutralized (3 M NaCl/0.5 M Tris. HCl, pH 7.5) and washed (2×SSC). Then, the filter film was kept at 120° C. for 2-4 hours, whereby DNA was baked on the filter film.
Usually, viral DNA of HepG 2.2.15 cells treated on the nylon filter film was detected by using a non-radioactive digoxigenin labelled type B hepatitis-specific DNA probe. Wherein, each time the probe was labelled with digoxigenin, purified and hybridized according to the directions for use given by the manufacturer.
Briefly, pre-hybridization and hybridization were conducted with 5×SSC, 1× blocking agent, 0.1% N-lauroyl sarcosine, 0.02% SDS and 100 μg sperm DNA of black carp. After pre-hybridization at 60° C. for 30 min, a specific hybridization (at 60° C. for 14 hr) was conducted with 20-40 ng/ml digoxigenin labelled denaturated I-BV specific DNA. Then, the filter film was washed, followed by digoxigenin antibody detection for HBV DNA. […]

HepG 2.2.15 cells = assay: Cytotoxicity in HepG 2.2.15 cells (cell morphology by microscope after 8 days, Reed & Muench); type: cell-based; settings: pathological change of cells after 8 days
Experimental: as §1, §2, §3
Prior to collection of the supernatant for determination of the antiviral effect, the cytotoxicity variation of HepG 2.2.15 cells was investigated by using optical microscopic technique or biochemical test method (e.g., Alamar Blue dyeing or Trypan Blue dyeing).
The substance-induced change in cytotoxicity in HepG 2.2.15 cells or change in inhibition of the cells could be determined by using, e.g., optical microscopic technique, and expressed by the change of cell morphology. Such substance-induced change, e.g., cell lysis, vacuolus formation or change in cell morphology, in HepG 2.2.15 cells was apparent as compared with the untreated cells. Taking the observed pathological change of cells as index, the pathological change of cells was observed under microscope after 8 days, a complete destroy being indicated as 4; 75% being indicated as 3; 50% being indicated as 2; 25% being indicated as 1; and no pathological change being indicated as 0. The average extents of pathological change of cells and the suppression percentages at various concentrations were calculated. According to Reed & Muench method, a half toxic concentration (TC50) and a maximum non-toxic concentration (TC0) were calculated.
TC50 refers to the concentration of the compound of the present invention when 50% of cells have a similar morphology to the corresponding cells as a control.

CCOC(=O)C1=C(C)NC(c2cncs2)=N[C@H]1c1ccc(F)cc1Cl [Example 7, (R)-4-(2-chloro-4-fluorophenyl)-6-methyl-2-(5-thiazolyl)-1,4-dihydropyrimidin-5-ethylcarboxylate]
IC50 (HBV DNA): 1800 nM | TD50 (HepG 2.2.15 cells): >12.5 µM

CC1=C(C(=O)N[C@H](C)c2ccccc2)[C@H](c2ccc(F)cc2Cl)N=C(c2nccs2)N1
melting point: 224 to 226 °C

CCOC(=O)C1=C(C)NC(c2nccs2)=N[C@H]1c1ccc(F)cc1Cl [Example 2, (R)-4-(2-chloro-4-fluorophenyl)-6-methyl-2-(2-thiazolyl)-1,4-dihydropyrimidin-5-ethylcarboxylate]
IC50 (HBV DNA): < 800 nM | TD50 (HepG 2.2.15 cells): >62.9 µM

CCOC(=O)C1=C(C)NC(c2c(F)cc(F)cc2F)=N[C@H]1c1ccc(F)cc1Cl [Example 5, (R)-4-(2-chloro-4-fluorophenyl)-6-methyl-2-(2,4,6-trifluorophenyl)-1,4-dihydropyrimidin-5-ethylcarboxylate]
IC50 (HBV DNA): 1300 nM | TD50 (HepG 2.2.15 cells): 13.8 µM | melting point: 162 to 165 °C

CC1=C(C(=O)OCC(F)(F)F)[C@H](c2ccc(F)cc2Cl)N=C(c2nccs2)N1 [Example 3, (R)-4-(2-chloro-4-fluorophenyl)-6-methyl-2-(2-thiazolyl)-1,4-dihydropyrimidin-5-trifluoroethylcarboxylate]
IC50 (HBV DNA): 5100 nM | TD50 (HepG 2.2.15 cells): 37.4 µM
